Measurements published in US20230338378A1, “Methods of Administering Myosin Inhibitors” (MYOKARDIA, INC., priority 2022, published 2023).

What was measured:
CYP2C9 [1] = target: T1, CYP2C9 (Homo sapiens, UniProt P11712); assay: In vitro CYP inhibition; assay type: in vitro ADME; conditions: In Vitro Studies; clinically relevant concentrations
MATE2-K = MATE2-K (Homo sapiens, UniProt Q86VL8); assay: In vitro transporter inhibition; assay type: in vitro ADME; conditions: In Vitro Studies
CYP2C9 [2] = target: T1, CYP2C9; assay: Metabolism through CYP enzymes
healthy volunteers = assay: Cardiac electrophysiology (QTc) in healthy volunteers; assay type: in vivo, human
Excerpt: The mechanism of the QT prolongation effect is not known.

pregnant rats [3] = assay: Embryo-fetal development study in pregnant rats; assay type: in vivo, rat
Excerpt: Plasma exposure (based on area under the concentration-time curve or AUC) at the no-effect dose for embryo-fetal development in rats is 0.3 times the exposure in humans at the MRHD.

rasH2 transgenic mouse = assay: 6-month rasH2 transgenic mouse carcinogenicity study; assay type: in vivo
pregnant rats [4] = assay: Pre/postnatal development study in rats; assay type: in vivo, rat
Method: In a pre/postnatal development study, mavacamten was administered orally to pregnant rats (0.3, to 1.5 mg/kg/day) from gestation Day 6 to lactation/post-partum Day 20.

[5] = system: bacterial reverse mutation; assay: Bacterial reverse mutation test (Ames test); assay type: cell-based
male or female rats = assay: Reproductive toxicity studies (mating and fertility); assay type: in vivo, rat
CYP2B6 [6] = assay: In vitro CYP induction; assay type: in vitro ADME; conditions: In Vitro Studies
CYP2B6 [7] = target: CYP2B6 (Homo sapiens, UniProt P20813); assay: In vitro CYP inhibition; assay type: in vitro ADME; conditions: In Vitro Studies
CYP2C8 = CYP2C8 (Homo sapiens, UniProt P10632); assay: In vitro CYP inhibition; assay type: in vitro ADME; conditions: In Vitro Studies
Plasma protein binding = assay type: in vitro ADME
[8] = Human experience of overdose; assay type: in vivo
Method: (§1) Human experience of overdose with MAVACAMTEN is limited. MAVACAMTEN has been given as a single dose of up to 144 mg in patients with HCM. […] In healthy subjects, doses of up to 25 mg have been administered for up to 25 days, with 3 of 8 participants treated at the 25 mg dose level experiencing 20% or greater reductions in LVEF. An infant death was reported after accidental ingestion of three 15 mg capsules.

BSEP = BSEP (Homo sapiens, UniProt O95342); assay: In vitro transporter inhibition; assay type: in vitro ADME; conditions: In Vitro Studies
CYP3A4 = CYP3A4 (Homo sapiens, UniProt P08684); assay: Metabolism through CYP enzymes
[9] = system: organic anion transporting polypeptides (OATPs); assay: In vitro transporter inhibition; assay type: in vitro ADME; conditions: In Vitro Studies
healthy subjects = assay: Doses of up to 25 mg for up to 25 days in healthy subjects; assay type: in vivo; conditions: 25 mg dose level for up to 25 days
Method: as §1

HCM patients = assay: Meta-analysis of QTc across clinical studies in HCM patients; assay type: in vivo, human; conditions: therapeutic exposure range
Excerpt: The effect of coadministration of MAVACAMTEN with QT-prolonging drugs or in patients with potassium channel variants resulting in a long QT interval have not been characterized.

pregnant rabbits = assay: Embryo-fetal development study in pregnant rabbits; assay type: in vivo, rabbit
Method: Visceral findings consisted of malformations of the great vessels (dilatation of pulmonary trunk and/or aortic arch). Skeletal malformations consisted of higher incidences of fused sternebrae at ≥1.2 mg/kg/day. Plasma exposure (AUC) at the no-effect dose for embryo-fetal development in rabbits is 0.4 times the exposure in humans at the MRHD.

[10] = system: organic anion transporters (OATs); assay: In vitro transporter inhibition; assay type: in vitro ADME; conditions: In Vitro Studies
[11] = Excretion after a single 25 mg dose of radiolabeled mavacamten; assay type: in vivo; conditions: single 25 mg dose of radiolabeled mavacamten
Method: Following a single 25 mg dose of radiolabeled mavacamten, 7% of the dose was recovered in feces (1% unchanged) and 85% in urine (3% unchanged).

CYP2C19 = CYP2C19 (Homo sapiens, UniProt P33261); assay: In vitro CYP inhibition; assay type: in vitro ADME; conditions: In Vitro Studies; clinically relevant concentrations
rats = assay: Oral animal toxicology at multiple dose levels; assay type: in vivo
Method: (§2) The safety of mavacamten has been evaluated in rats and dogs at multiple dose levels (0.06 to 10 mg/kg/day) orally. […] Plasma exposures (AUC) at the NOAEL in rats and dogs were 0.1 and 0.3 times, respectively, human exposure (AUC) at the MRHD.

dogs = assay: Oral animal toxicology at multiple dose levels; assay type: in vivo
Method: as §2

Solubility = assay type: physicochemical
CYP1A2 = CYP1A2 (Homo sapiens, UniProt P05177); assay: In vitro CYP inhibition; assay type: in vitro ADME; conditions: In Vitro Studies
Sequence of CYP1A2 (P05177 whole entry): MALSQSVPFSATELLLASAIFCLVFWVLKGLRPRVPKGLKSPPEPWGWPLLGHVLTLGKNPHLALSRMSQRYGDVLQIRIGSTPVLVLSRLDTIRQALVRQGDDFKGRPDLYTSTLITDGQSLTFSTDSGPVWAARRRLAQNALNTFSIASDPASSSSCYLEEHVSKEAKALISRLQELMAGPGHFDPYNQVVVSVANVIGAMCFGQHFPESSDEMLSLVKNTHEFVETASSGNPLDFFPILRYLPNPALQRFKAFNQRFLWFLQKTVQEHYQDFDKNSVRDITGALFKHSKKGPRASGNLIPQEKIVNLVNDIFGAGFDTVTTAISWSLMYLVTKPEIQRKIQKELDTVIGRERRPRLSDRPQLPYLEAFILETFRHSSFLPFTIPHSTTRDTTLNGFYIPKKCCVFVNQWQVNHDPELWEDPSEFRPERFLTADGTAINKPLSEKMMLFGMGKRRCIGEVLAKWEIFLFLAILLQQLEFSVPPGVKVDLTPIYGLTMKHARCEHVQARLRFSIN

T1 sequence (P11712 whole entry): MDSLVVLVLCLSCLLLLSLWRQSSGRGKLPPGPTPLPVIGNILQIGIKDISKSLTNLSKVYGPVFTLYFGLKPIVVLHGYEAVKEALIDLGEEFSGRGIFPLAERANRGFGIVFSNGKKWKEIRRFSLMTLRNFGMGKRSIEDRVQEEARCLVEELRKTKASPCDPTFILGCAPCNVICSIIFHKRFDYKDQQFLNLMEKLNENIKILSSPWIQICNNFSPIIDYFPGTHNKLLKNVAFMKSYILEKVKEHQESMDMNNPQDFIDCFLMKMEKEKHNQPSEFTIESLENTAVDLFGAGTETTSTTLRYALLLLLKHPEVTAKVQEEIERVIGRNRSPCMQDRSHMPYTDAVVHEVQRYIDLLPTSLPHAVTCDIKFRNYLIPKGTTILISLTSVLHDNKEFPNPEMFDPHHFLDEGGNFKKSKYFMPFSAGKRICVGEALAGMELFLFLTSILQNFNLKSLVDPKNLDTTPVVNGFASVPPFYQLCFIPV
Sequence of CYP2C8 (P10632 whole entry): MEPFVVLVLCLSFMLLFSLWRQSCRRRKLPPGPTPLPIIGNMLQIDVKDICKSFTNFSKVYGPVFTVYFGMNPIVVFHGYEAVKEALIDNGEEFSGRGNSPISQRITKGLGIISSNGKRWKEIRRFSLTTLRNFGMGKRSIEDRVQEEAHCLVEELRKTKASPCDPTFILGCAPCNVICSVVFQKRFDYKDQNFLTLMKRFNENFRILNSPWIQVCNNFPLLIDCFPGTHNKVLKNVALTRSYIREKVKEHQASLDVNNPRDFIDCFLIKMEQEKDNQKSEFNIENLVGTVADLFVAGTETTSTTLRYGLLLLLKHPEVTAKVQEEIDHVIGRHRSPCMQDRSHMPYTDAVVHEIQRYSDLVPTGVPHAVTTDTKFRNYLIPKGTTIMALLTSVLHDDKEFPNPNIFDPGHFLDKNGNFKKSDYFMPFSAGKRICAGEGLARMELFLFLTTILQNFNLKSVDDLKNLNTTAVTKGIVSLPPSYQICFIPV
Sequence of CYP3A4 (P08684 whole entry): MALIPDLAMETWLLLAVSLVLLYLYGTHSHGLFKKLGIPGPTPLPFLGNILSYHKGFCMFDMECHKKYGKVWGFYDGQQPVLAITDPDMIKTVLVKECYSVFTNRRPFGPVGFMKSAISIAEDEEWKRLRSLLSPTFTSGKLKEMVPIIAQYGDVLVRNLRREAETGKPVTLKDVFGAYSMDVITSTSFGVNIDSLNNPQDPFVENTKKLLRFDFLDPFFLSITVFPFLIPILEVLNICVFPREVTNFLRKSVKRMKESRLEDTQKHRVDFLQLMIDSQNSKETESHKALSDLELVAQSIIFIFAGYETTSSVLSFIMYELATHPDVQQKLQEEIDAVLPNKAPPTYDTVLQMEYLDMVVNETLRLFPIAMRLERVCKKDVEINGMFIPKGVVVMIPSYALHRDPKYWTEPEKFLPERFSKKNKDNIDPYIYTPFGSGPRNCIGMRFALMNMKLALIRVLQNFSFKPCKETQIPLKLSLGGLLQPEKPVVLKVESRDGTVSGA
Sequence of MATE2-K (Q86VL8 1-566 isoform Q86VL8-3): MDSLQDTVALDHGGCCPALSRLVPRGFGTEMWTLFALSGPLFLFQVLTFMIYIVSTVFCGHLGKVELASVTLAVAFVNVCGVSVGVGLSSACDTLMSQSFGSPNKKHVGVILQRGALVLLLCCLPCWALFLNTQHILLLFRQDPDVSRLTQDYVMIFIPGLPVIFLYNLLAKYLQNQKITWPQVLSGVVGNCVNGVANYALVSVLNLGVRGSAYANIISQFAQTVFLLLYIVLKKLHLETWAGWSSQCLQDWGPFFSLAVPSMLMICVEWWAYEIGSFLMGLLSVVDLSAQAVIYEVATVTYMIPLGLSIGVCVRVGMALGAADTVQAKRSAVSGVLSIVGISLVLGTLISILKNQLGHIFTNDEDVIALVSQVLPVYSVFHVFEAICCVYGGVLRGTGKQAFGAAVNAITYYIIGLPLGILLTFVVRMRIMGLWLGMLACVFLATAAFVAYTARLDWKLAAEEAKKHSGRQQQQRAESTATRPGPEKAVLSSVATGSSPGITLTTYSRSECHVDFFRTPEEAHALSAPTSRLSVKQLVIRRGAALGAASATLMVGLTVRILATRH
Sequence of BSEP (O95342 whole entry): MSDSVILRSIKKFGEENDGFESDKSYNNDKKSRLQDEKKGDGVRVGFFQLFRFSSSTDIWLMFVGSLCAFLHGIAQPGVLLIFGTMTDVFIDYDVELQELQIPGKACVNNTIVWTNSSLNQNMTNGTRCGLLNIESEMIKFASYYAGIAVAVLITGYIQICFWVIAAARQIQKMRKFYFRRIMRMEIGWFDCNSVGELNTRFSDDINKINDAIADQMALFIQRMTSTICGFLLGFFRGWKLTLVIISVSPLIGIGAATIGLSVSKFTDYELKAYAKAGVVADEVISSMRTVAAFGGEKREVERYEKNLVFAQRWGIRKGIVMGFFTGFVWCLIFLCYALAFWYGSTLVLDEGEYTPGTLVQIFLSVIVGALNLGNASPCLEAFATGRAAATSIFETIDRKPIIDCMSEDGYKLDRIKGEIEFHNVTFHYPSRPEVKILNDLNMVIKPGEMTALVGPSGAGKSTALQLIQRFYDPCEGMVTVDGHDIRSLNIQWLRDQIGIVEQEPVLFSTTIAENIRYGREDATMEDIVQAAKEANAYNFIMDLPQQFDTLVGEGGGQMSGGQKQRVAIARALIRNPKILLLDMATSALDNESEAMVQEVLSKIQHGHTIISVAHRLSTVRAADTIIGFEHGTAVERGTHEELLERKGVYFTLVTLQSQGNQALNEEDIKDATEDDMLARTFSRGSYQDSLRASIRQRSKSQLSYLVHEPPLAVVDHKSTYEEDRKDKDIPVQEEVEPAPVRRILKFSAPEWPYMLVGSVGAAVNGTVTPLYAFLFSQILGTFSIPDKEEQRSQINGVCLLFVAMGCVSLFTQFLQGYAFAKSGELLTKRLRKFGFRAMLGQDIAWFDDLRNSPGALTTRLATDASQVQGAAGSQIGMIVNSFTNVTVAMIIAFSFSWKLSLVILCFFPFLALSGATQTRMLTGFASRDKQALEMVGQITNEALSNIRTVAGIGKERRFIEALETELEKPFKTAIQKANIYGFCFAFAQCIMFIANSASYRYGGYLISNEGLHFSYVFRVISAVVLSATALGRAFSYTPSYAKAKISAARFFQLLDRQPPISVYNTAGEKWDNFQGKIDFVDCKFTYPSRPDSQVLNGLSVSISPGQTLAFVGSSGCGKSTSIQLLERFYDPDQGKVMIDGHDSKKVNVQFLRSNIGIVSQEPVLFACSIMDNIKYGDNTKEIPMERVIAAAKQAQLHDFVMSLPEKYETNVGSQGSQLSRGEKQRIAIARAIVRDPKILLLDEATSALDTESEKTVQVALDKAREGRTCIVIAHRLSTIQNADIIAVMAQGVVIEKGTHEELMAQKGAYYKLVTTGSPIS
Sequence of CYP2B6 (Homo sapiens, UniProt P20813) (P20813 whole entry): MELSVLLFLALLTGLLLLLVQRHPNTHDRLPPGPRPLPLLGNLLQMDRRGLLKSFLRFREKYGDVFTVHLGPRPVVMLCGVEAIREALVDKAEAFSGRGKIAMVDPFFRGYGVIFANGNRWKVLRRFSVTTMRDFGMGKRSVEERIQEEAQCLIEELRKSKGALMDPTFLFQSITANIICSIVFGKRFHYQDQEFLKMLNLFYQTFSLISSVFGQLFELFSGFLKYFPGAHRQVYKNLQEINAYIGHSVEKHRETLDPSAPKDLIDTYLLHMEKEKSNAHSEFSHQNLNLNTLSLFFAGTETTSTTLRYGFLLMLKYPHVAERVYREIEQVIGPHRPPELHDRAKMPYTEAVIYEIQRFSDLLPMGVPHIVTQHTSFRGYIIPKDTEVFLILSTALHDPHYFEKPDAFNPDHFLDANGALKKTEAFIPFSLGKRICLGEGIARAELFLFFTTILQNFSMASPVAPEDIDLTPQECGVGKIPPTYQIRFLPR
Sequence of CYP2C19 (P33261 whole entry): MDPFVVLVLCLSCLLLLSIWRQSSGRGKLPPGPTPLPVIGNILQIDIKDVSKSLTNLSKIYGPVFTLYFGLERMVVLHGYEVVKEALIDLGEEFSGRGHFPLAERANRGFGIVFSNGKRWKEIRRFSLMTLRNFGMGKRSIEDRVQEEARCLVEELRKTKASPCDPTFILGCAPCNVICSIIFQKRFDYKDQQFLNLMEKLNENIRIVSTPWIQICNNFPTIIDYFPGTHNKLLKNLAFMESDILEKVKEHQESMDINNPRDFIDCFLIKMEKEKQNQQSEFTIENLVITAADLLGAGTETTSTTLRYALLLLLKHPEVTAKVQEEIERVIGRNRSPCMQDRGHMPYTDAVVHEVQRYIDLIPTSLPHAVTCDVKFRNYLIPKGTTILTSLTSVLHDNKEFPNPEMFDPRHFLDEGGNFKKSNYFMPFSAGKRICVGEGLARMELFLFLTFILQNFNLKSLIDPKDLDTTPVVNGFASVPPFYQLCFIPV

CC(C)n1c(=O)cc(N[C@@H](C)c2ccccc2)[nH]c1=O [mavacamten, (S)-3-Isopropyl-6-((1-phenylethyl)amino)pyrimidine-2,4(1H,3H)-dione]
inhibition of CYP2C9 (CYP2C9 [1]): not an inhibitor
inhibition of MATE2-K (MATE2-K): does not inhibit
metabolized through CYP2C9 (CYP2C9 [2]): 8%
QTc interval (healthy volunteers; healthy volunteers, multiple doses up to 25 mg once daily): concentration-dependent increase in the QTc interval
QTc interval (healthy volunteers; similar exposures during single-dose studies): No acute QTc changes
embryo-fetal findings (pregnant rats [3]; pregnant rats, oral, period of organogenesis, high dose group (1.5 mg/kg/day)): increases in post-implantation loss, decreases in mean fetal body weight, reductions in fetal ossification of bones, and fetal malformations (visceral and skeletal) were observed
Plasma exposure (AUC) at the no-effect dose for embryo-fetal development vs exposure in humans at the MRHD (pregnant rats [3]; rats): 0.3 times
carcinogenicity (rasH2 transgenic mouse; 6-month rasH2 transgenic mouse, up to 2.0 mg/kg/day in males and 3.0 mg/kg/day in females): no evidence of carcinogenicity
exposure (AUC) compared to AUC exposures in humans at the MRHD (rasH2 transgenic mouse; females, 3.0 mg/kg/day): 3 fold
exposure (AUC) compared to AUC exposures in humans at the MRHD (rasH2 transgenic mouse; males, 2.0 mg/kg/day): 1.8 fold
no-observed-adverse-effect level (NOAEL) (pregnant rats [4]; pre/postnatal development study, rats, highest dosage level tested): 1.5 mg/kg/day
effects in dams or offspring (pregnant rats [4]; pregnant rats, oral 0.3 to 1.5 mg/kg/day, gestation Day 6 to lactation/post-partum Day 20): No adverse effects were observed
genotoxicity [5]: not genotoxic
effects on the viability and fertility of offspring (male or female rats; dams dosed up to 1.5 mg/kg/day): no evidence of effects
effects on mating and fertility (male or female rats; male or female rats, doses up to 1.2 mg/kg/day): no evidence of effects
Plasma exposure (AUC) at the highest dose tested (male or female rats; rats): the same as in humans at the MRHD
induction of CYP2B6 (CYP2B6 [6]): inducer
inhibition of CYP2B6 (CYP2B6 [7]): does not inhibit
inhibition of CYP2C8 (CYP2C8): does not inhibit
fraction unbound (Plasma protein binding): 0.02 to 0.03
events after overdose ([8]; one subject, single dose of 144 mg, subject recovered): serious adverse events including vasovagal reaction, hypotension, and asystole
outcome after accidental ingestion ([8]; three 15 mg capsules): infant death
inhibition of BSEP (BSEP): does not inhibit
metabolized through CYP3A4 (CYP3A4): 18%
inhibition of OATPs [9]: does not inhibit
participants experiencing 20% or greater reductions in LVEF (healthy subjects): 3 of 8
QTc interval (HCM patients): does not suggest clinically relevant increases in the QTc interval
embryo-fetal findings (pregnant rabbits; pregnant rabbits, oral, period of organogenesis, doses of 1.2 mg/kg/day and higher): fetal malformations (visceral and skeletal) were increased
Plasma exposure (AUC) at the no-effect dose for embryo-fetal development vs exposure in humans at the MRHD (pregnant rabbits; rabbits): 0.4 times
inhibition of OATs [10]: does not inhibit
dose recovered in feces [11]: 7%
dose recovered in feces unchanged [11]: 1%
dose recovered in urine [11]: 85%
dose recovered in urine unchanged [11]: 3%
inhibition of CYP2C19 (CYP2C19): not an inhibitor
Other findings (rats): cardiac osseous metaplasia
Plasma exposure (AUC) at the NOAEL vs human exposure (AUC) at the MRHD (rats): 0.1 times
heart weights (rats): increased heart weights
Noted toxicities (rats; 0.06 to 10 mg/kg/day orally): echocardiographic findings, reduction in systolic function, cardiac dilation, and death
Other findings (dogs): QTc prolongation
Plasma exposure (AUC) at the NOAEL vs human exposure (AUC) at the MRHD (dogs): 0.3 times
Noted toxicities (dogs; 0.06 to 10 mg/kg/day orally): echocardiographic findings, reduction in systolic function, cardiac dilation, and death
solubility (Solubility; DMSO and NMP): freely soluble
solubility (Solubility; methanol and ethanol): sparingly soluble
solubility (Solubility; water and aqueous buffers at pH 2-10): practically insoluble
inhibition of CYP1A2 (CYP1A2): does not inhibit
